According to PMC7797525 (iScience, 2020):

Assays:
RecA [1] = target: T1, RecA (Escherichia coli, UniProt P0A7G6, Y104A); test: isothermal titration calorimetry; type: binding
T1 sequence (P0A7G6 2-353 Y104A): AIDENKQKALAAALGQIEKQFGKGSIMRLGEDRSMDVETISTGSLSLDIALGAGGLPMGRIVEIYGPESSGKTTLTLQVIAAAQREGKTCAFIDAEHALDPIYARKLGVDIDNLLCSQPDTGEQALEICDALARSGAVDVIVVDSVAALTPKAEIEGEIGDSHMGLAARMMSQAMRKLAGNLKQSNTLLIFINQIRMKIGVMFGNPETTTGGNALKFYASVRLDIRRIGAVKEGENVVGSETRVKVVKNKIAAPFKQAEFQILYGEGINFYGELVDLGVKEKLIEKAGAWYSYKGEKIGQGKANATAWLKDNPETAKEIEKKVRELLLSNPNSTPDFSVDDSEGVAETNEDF

RecA [2] = target: T2, RecA (Escherichia coli, UniProt P0A7G6); test: isothermal titration calorimetry; type: binding
T2 sequence (P0A7G6 2-353): T1 sequence (P0A7G6 2-353 Y104A)

Kd (RecA [1]) [µM] | Kd (RecA [2]) [µM] | Compound
40.2 | 17.6 | Cc1ccc(C(=O)Nc2ccc(S(=O)(=O)O)c3cc(S(=O)(=O)O)cc(S(=O)(=O)O)c23)cc1NC(=O)c1cccc(NC(=O)Nc2cccc(C(=O)Nc3cc(C(=O)Nc4ccc(S(=O)(=O)O)c5cc(S(=O)(=O)O)cc(S(=O)(=O)O)c45)ccc3C)c2)c1 [cpd01, suramin]
 | 11.5 | Cc1cc(-c2ccc(/N=N/c3ccc4c(S(=O)(=O)O)cc(S(=O)(=O)O)c(N)c4c3O)c(C)c2)ccc1/N=N/c1ccc2c(S(=O)(=O)O)cc(S(=O)(=O)O)c(N)c2c1O [s06, Evans blue]
 | 18.8 | COc1cc(-c2ccc(N=Nc3ccc4c(S(=O)(=O)O)cc(S(=O)(=O)O)c(N)c4c3O)c(OC)c2)ccc1N=Nc1ccc2c(S(=O)(=O)O)cc(S(=O)(=O)O)c(N)c2c1O [s05, Chicago sky blue]
